Earlier results on one molecule are cited in patent US8828934B2, “Mnk kinase homologous proteins involved in the regulation of energy homeostasis and organelle metabolism” (Boehringer Ingelheim International GmbH, priority 2001, dated 2014).

The test system of data set [1] is Mnk2 (Mnk2a or Mnk2b) or Mnk1. The settings on record: compound added to cell culture cells transfected with Mnk2 (Mnk2a or Mnk2b) or Mnk1.
The conditions of data set [2]: not cytotoxic up to this concentration.

With `Nc1ncnc2n[nH]c(Nc3ccc(F)cc3)c12` [CGP57380], the “reduction in phosphorylated eIF4E” value in data set [1] is on record as “strong reduction in phosphorylated eIF4E”. Also, the “concentration up to which not cytotoxic” value in data set [2] was over 30 µM.
